# PMC5602130, “Food and Sex-Related Impacts on the Pharmacokinetics of a Single-Dose of Ginsenoside Compound K in Healthy Subjects” (Frontiers in Pharmacology, 2017)
# Like-named read-outs stand apart in the source and are kept apart here.
# Experiments:
# [1] = Food-effect two-period crossover trial: plasma pharmacokinetics after a single 200 mg oral dose of Ginsenoside CK Tablets; format: in vivo, human; settings: for Tmax: median (range)
# Experimental: The food-effect trial was an open-label, randomized, two-period, two-treatment crossover trial, carried out from 15 January to 31 March 2015. Subjects (n = 24) were admitted to the clinical facility (Center of Clinical Pharmacology, the Third Xiangya Hospital, Central South University, Changsha, China) and randomized to receive a single 200 mg oral dose of Ginsenoside CK Tablets (4 × 50 mg tablets) either after a 10 h-fasting period or within 30 min after beginning the consumption of a recommended high-fat, high calorie breakfast (150 calories of protein, 250 calories of carbohydrates, 500 to 600 calories of fat; total calories approximately 800–1,000). Tablets were administered with 250 mL of water, to each subject, in each treatment period. Drinking was prohibited for 2 h before and after medication. Apart from this, the amount and time of drinking were not strictly controlled. Subjects had unified, standard meals 4 and 10 h after drug administration. The alternate treatment was conducted after a 14-day washout period.
# Serial blood samples (5 mL) for PK assessment were collected from an indwelling catheter or by direct venipuncture prior to the administration (t = 0) and 0.25, 0.5, 1, 1.5, 2, 2.5, 3, 3.5, 4, 5, 6, 8, 12, 24, 36, 48, 72, and 96 h after the administration of ginsenoside CK. We inferred that these sampling times were sufficient for this trial, based on international guidelines (FDA, [2003]; CFDA, [2005]) and our previous results, since the sampling time is longer than at least three terminal half-lives of the drug. Additionally, the mean plasma concentrations of both CK and 20(S)-PPD at 96 h were considerably <1/20 of their Cmax even when the single oral dose at 800 mg (unpublished). Plasma was separated in blood collection tubes by centrifugation (3,000 rpm, 10 min) at 4°C within 1 h after sampling, transferred to labeled storage tubes and stored at −70°C pending workup and analysis.
# Descriptive statistics of PK parameters were calculated using established non-compartmental methods, utilizing the WinNonLin version 6.1 software (Pharsight Corporation, USA). The PK parameters determined for each participant included apparent terminal half-life (t1/2), maximum plasma concentration (Cmax), time to Cmax (tmax), area under the plasma concentration-time curve from the time of administration up to the last time point with a measurable concentration post-dose (AUClast), AUC extrapolated to infinity (AUCinf), apparent volume of distribution (V/F), apparent plasma clearance (CL/F) after extravascular administration, mean residence time (MRTlast and MRTinf), and the cumulative excretion rate from urine. The t1/2 was estimated as (ln2)/K, where K represented the slope of the terminal phase of plasma concentration-time profile and was assessed with a weighting factor of 1, using least squares (log-linear regression of at least three data points). The Cmax and tmax were obtained from experimental observations. The values of AUC were calculated using conventional trapezoidal and log-trapezoidal methods and the extrapolated area (Rowland and Tozer, [1995]). CL/F and V/F were calculated as dose/AUCinf and (CL/F)/K, respectively. MRT was calculated as MRT = AUMC/AUC, where AUMC is the area under the first moment curve. The cumulative excretion rate was calculated as the amount of unchanged drug over a time interval in the urine divided by dose, and was expressed as a percentage.
# All samples were detected using a LC-MS/MS (API 4000, ABI Company, USA) method, validated at the Institute of Clinical Pharmacology, Central South University (Changsha, China). Concentrations of CK and 20(S)-PPD were measured using a triple quadrupole tandem mass spectrometer in multiple reaction monitoring (MRM) mode, via a positive electrospray ionization source at m/z 621.4→ 160.8 for the CK and m/z 461.5→425.3 for 20(S)-PPD, with a dwell time of 200 ms. […]
# [2] = parameters: method as in unpublished; settings: ref unpublished, cited from earlier work
# [3] = both sexes, human, plasma, po, 200 mg, single oral 200 mg CK, FO, all subjects
# [4] = female, human, plasma, po, 200 mg, single oral 200 mg CK, FO
# [5] = female, human, plasma, po, 200 mg, single oral 200 mg CK, HF
# [6] = geometric mean ratio FO vs. HF, n = 24
# [7] = human, plasma, po, 200 mg, single oral 200 mg CK, FO, all subjects
# [8] = human, plasma, po, 200 mg, single oral 200 mg CK, HF, all subjects
# [9] = male, human, plasma, po, 200 mg, single oral 200 mg CK, FO
# [10] = male, human, plasma, po, 200 mg, single oral 200 mg CK, HF
# [11] = plasma, single oral 200 mg CK, FO, female
# [12] = plasma, single oral 200 mg CK, FO, male
# [13] = plasma, single oral 200 mg CK, HF, male
# [14] = single oral 200 mg CK, FO, all subjects
# [15] = single oral 200 mg CK, FO, female
# [16] = single oral 200 mg CK, FO, male
# [17] = single oral 200 mg CK, HF, all subjects
# [18] = single oral 200 mg CK, HF, female
# [19] = single oral 200 mg CK, HF, male
compound,measurement,setting,value
"CC(C)=CCCC(C)(OC1OC(CO)C(O)C(O)C1O)C1CCC2(C)C1C(O)CC1C3(C)CCC(O)C(C)(C)C3CCC12C [CK, 20-O-beta-D-glucopyranosyl-20(S)-protopanaxadiol]","Increase of Cmax, AUClast and AUCinf after HF meal compared to the FO condition",[1]; 24 subjects,about 2 fold
same,lgAUClast GMR (90%CI),"[1]; FO vs. HF (Female), n = 12",0.38 (0.28–0.53)
same,lgCmax GMR (90%CI),"[1]; FO vs. HF (Female), n = 12",0.45 (0.33–0.62)
same,lgAUClast GMR (90%CI),"[1]; FO vs. HF (Male), n = 12",0.49 (0.42–0.57)
same,lgCmax GMR (90%CI),"[1]; FO vs. HF (Male), n = 12",0.55 (0.46–0.65)
same,lgAUClast GMR (90%CI),"[1]; M vs. F (FO), n = 12",0.74 (0.54–1.02)
same,lgCmax GMR (90%CI),"[1]; M vs. F (FO), n = 12",0.77 (0.57–1.04)
same,lgAUClast GMR (90%CI),"[1]; M vs. F (HF), n = 12",0.59 (0.46–0.75)
same,lgCmax GMR (90%CI),"[1]; M vs. F (HF), n = 12",0.64 (0.46–0.88)
same,Subjects having measurable CK concentrations at 0.25 h after administration,"[1]; after a meal, 20 of 24 subjects",83%
same,half-life,"[1]; both sexes, human, plasma, oral, 200 mg, FO and HF, male and female groups, read-out: mean t1/2, range over all treatments",24 to 28.4 h
same,AUC(0-inf),[1]; [3],5880 ng·h/mL
same,AUC(0-t),[1]; [3],5750 ng·h/mL
same,AUC(0-t),"[1]; both sexes, human, plasma, po, 200 mg, single oral 200 mg CK, HF, all subjects",12600 ng·h/mL
same,Tmax,[1]; [4],3.8 h
same,Cmax,"[1]; female, human, plasma, po, 200 mg, plasma, single oral 200 mg CK, FO, female, read-out: Cmax",921 ± 505 ng/mL
same,half-life,"[1]; female, human, plasma, po, 200 mg, plasma, single oral 200 mg CK, FO, female, read-out: t1/2 (converted)",26.9 ± 5.4 h
same,Cmax,"[1]; female, human, plasma, po, 200 mg, plasma, single oral 200 mg CK, HF, female, read-out: Cmax",1840 ng/mL
same,half-life,"[1]; female, human, plasma, po, 200 mg, plasma, single oral 200 mg CK, HF, female, read-out: t1/2 (converted)",25.6 ± 3.5 h
same,MRT inf,[1]; [4],14.5 ± 2.1 h
same,MRT last,[1]; [4],11.6 ± 1 h
same,MRT inf,[1]; [5],14.6 ± 1.5 h
same,MRT last,[1]; [5],12.2 ± 1 h
same,AUC(0-inf),[1]; [4],6900 ng·h/mL
same,AUC(0-t),[1]; [4],6750 ng·h/mL
same,AUC(0-inf),[1]; [5],15900 ng·h/mL
same,AUC(0-t),[1]; [5],15600 ng·h/mL
same,lgAUClast GMR (90%CI),[1]; [6],0.43 (0.36–0.51)
same,lgCmax GMR (90%CI),[1]; [6],0.50 (0.42–0.59)
same,Tmax,[1]; [7],3.6 h
same,half-life,"[1]; human, plasma, po, 200 mg, plasma, single oral 200 mg CK, FO (fasting overnight), all subjects, read-out: t1/2 (converted)",27.7 ± 7.9 h
same,Cmax,"[1]; human, plasma, po, 200 mg, plasma, single oral 200 mg CK, FO, all subjects, read-out: Cmax",797 ± 406 ng/mL
same,half-life,"[1]; human, plasma, po, 200 mg, plasma, single oral 200 mg CK, HF (high-fat meal), all subjects, read-out: t1/2 (converted)",24.8 ± 3 h
same,Cmax,"[1]; human, plasma, po, 200 mg, plasma, single oral 200 mg CK, HF, all subjects, read-out: Cmax",1570 ng/mL
same,MRT inf,[1]; [7],15.1 ± 4.3 h
same,MRT last,[1]; [7],11.7 ± 1.2 h
same,MRT inf,[1]; [8],14.6 ± 1.7 h
same,MRT last,[1]; [8],12.3 ± 1.2 h
same,Tmax,[1]; [9],3.4 h
same,Cmax,"[1]; male, human, plasma, po, 200 mg, plasma, single oral 200 mg CK, FO, male, read-out: Cmax",672 ± 236 ng/mL
same,half-life,"[1]; male, human, plasma, po, 200 mg, plasma, single oral 200 mg CK, FO, male, read-out: t1/2 (converted)",28.4 ± 10 h
same,Cmax,"[1]; male, human, plasma, po, 200 mg, plasma, single oral 200 mg CK, HF, male, read-out: Cmax",1300 ng/mL
same,half-life,"[1]; male, human, plasma, po, 200 mg, plasma, single oral 200 mg CK, HF, male, read-out: t1/2 (converted)",24 ± 2.4 h
same,MRT inf,[1]; [9],15.7 ± 5.7 h
same,MRT last,[1]; [9],11.9 ± 1.3 h
same,MRT inf,[1]; [10],14.5 ± 1.9 h
same,MRT last,[1]; [10],12.4 ± 1.4 h
same,AUC(0-inf),[1]; [9],4860 ng·h/mL
same,AUC(0-t),[1]; [9],4750 ng·h/mL
same,AUC(0-inf),[1]; [10],9810 ng·h/mL
same,AUC(0-t),[1]; [10],9630 ng·h/mL
same,AUClast,[1]; [11],"6,747.5 ± 3,408.7 h·ng·ml^−1"
same,Cmax,[1]; [11],921.4 ± 505.1 ng/mL
same,AUCinf,[1]; [12],"4,857.1 ± 1,723.2 h·ng·ml^−1"
same,AUClast,[1]; [12],"4,749.9 ± 1,718.1 h·ng·ml^−1"
same,Cmax,[1]; [12],672.2 ± 235.8 ng/mL
same,Cmax,"[1]; plasma, single oral 200 mg CK, HF, female","1,838.6 ± 404.4 ng·ml^−1"
same,AUClast,[1]; [13],"9,633.1 ± 3,313.5 h·ng·ml^−1"
same,Cmax,[1]; [13],"1,302.0 ± 632.9 ng·ml^−1"
same,CL/F,[1]; [14],43.4 ± 24.2 L/h
same,V/F,[1]; [14],"1,875 ± 1,899 L"
same,CL/F,[1]; [15],38.0 ± 21.8 L/h
same,V/F,[1]; [15],"1,427 ± 699 L"
same,CL/F,[1]; [16],48.8 ± 26.3 L/h
same,V/F,[1]; [16],"2,323 ± 2,572 L"
same,CL/F,[1]; [17],18.2 ± 9.8 L/h
same,V/F,[1]; [17],652 ± 381 L
same,CL/F,[1]; [18],12.8 ± 1.8 L/h
same,V/F,[1]; [18],477 ± 109 L
same,CL/F,[1]; [19],23.6 ± 11.6 L/h
same,V/F,[1]; [19],828 ± 475 L
same,"Effects on vital signs, laboratory tests or 12-lead ECG",[2]; dose range 100–400 mg,no significant effects
same,Dose range over which exposure increased linearly,[2]; previous clinical trial,100 to 400 mg
same,Mean plasma concentration at 96 h as fraction of Cmax,[2]; single oral dose at 800 mg,< 1/20
